Laboratory results from patent US9060541B2, “Sterilizer for foods” (Kawakami Co., Ltd., priority 2009, dated 2015).
Read-outs that look alike come from different tables or passages of the source.

How the values were obtained:
Format in all cases: cell-based
Parameters in all cases: key: D: There is no sterilization effect.; C: There is a sterilization effect in step (1) but no sterilization effect in step (2).; B: There is a sterilization effect up to step (2) but no sterilization effect in step (3).; A: There is a sterilization effect up to step (3)
[1] = system: Vibrio cholerae O139 MO45
[2] = system: Vibrio fluvialis KX-F24; test: Comparison test of sterilization effects against various food poisoning microbes
[3] = system: Staphylococcus aureus 080392-1 Toxin type A; test: as above
[4] = system: Salmonella serotype Stanley KX-S141; test: as above
[5] = system: Salmonella serotype Rissen KX-S151; test: as above
[6] = system: Salmonella serotype Anatum KX-S152; test: as above
[7] = system: Salmonella serotype Krefeld KX-S124; test: as above
[8] = system: Plesiomonas shigelloides KX-P1945; test: as above
[9] = system: Shigella dysenteriae serotype 2 KX-H214
[10] = system: Enterohemorrhagic Escherichia coli O157:H7 EDL 933
[11] = system: Enteroaggregative Escherichia coli O111:H21 K-H-6; test: Comparison test of sterilization effects against various food poisoning microbes
[12] = system: Bacillus cereus Kyoto 1; test: as above
[13] = system: Clostridium perfringens NCTC8237
[14] = system: Campylobacter jejuni subsp. Jejuni JCM2013; test: Comparison test of sterilization effects against various food poisoning microbes
[15] = system: Candida albicans NCPF 3179; test: as above
[16] = Table 7, test microbe solution without yeast extract
[17] = Table 8, yeast extract 4 weight % blended in test microbe solution

SMILES | Sterilization effect [1, 16] | Sterilization effect [1, 17] | Sterilization effect [2, 16] | Sterilization effect [2, 17] | Sterilization effect [3, 16] | Sterilization effect [3, 17] | Sterilization effect [4, 16] | Sterilization effect [4, 17] | Sterilization effect [5, 16] | Sterilization effect [5, 17] | Sterilization effect [6, 16] | Sterilization effect [6, 17] | Sterilization effect [7, 16] | Sterilization effect [7, 17] | Sterilization effect [8, 16] | Sterilization effect [8, 17] | Sterilization effect [9, 16] | Sterilization effect [9, 17] | Sterilization effect [11, 16] | Sterilization effect [11, 17] | also measured
[Na+].[O-]Cl [S.H 150 ppm, sodium hypochlorite] | A | D | A | D | A | D | A | D | A | D | A | D | A | D | A | C | A | C | A | D | Sterilization effect [10, 16]: A; Sterilization effect [10, 17]: D; Sterilization effect [12, 16]: A; Sterilization effect [12, 17]: D; Sterilization effect [13, 16]: A; Sterilization effect [13, 17]: D; Sterilization effect [14, 16]: A; Sterilization effect [14, 17]: C; Sterilization effect [15, 16]: A; Sterilization effect [15, 17]: D
CCO [EtOH 30%, ethanol] | B | C | C | C | B | D | C | C | C | C | C | C | C | C | B | B | C | C | D | D | Sterilization effect [10]: D; Sterilization effect [12, 16]: C; Sterilization effect [12, 17]: D; Sterilization effect [13, 16]: D; Sterilization effect [13, 17]: D; Sterilization effect [14, 16]: B; Sterilization effect [14, 17]: B; Sterilization effect [15, 16]: B; Sterilization effect [15, 17]: C
